Reference: ChEMBL document CHEMBL1201862, “PubChem BioAssay data set” (2004)
Activity calls are given as the source filed them.

Key:
[1] = target: Intestinal-type alkaline phosphatase (Mus musculus, UniProt P24822); assay: PubChem AID 488785; format: functional
[2] = target: Intestinal-type alkaline phosphatase (Homo sapiens, UniProt P09923); assay: inhibition of human intestinal alkaline phosphatase – biochemical, dose response (AID 488876); format: functional
[3] = target: T1, Alkaline phosphatase, tissue-nonspecific isozyme (Homo sapiens, UniProt P05186); assay: TNAP enzyme inhibition by screening hits, dose response, selectivity assay for mouse IAP inhibitor project, biochemical, human TNAP, uHTS hits (AID 488906); format: functional
T1 sequence (P05186 whole entry): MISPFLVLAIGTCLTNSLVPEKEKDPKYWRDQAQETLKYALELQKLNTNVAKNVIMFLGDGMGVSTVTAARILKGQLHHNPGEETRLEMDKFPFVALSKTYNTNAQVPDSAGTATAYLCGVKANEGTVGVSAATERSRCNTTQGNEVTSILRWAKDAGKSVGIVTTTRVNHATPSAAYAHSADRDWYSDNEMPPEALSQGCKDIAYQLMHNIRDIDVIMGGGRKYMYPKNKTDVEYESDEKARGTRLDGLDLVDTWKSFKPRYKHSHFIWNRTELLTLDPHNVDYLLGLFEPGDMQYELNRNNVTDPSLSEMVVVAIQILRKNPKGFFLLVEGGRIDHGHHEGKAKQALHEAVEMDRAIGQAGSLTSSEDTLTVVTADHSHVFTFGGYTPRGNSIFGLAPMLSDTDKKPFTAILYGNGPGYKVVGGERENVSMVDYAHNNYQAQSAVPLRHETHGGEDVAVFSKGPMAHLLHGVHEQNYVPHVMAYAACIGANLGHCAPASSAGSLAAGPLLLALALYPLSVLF

[4] = target: 5-hydroxytryptamine receptor 5A (Homo sapiens, UniProt P47898); assay: Counterscreen for agonists of OPRM1-OPRD1 heterodimerization: luminescence-based cell-based high throughput dose response assay to identify agonists of 5-hydroxytryptamine (serotonin) 5A receptor (HTR5A). [Related pubchem assays (depositor defined):AID504326, AID504355, AID504692, AID504904, AID504905]; format: functional
[5] = target: Delta-type opioid receptor (Homo sapiens, UniProt P41143); assay: Counterscreen for agonists of heterodimerization of the mu 1 (OPRM1) and delta 1 (OPRD1) opioid receptors: Luminescence-based cell-based high throughput dose response assay to identify agonists of OPRD1 homodimerization. [Related pubchem assays (depositor defined):AID504326, AID504355, AID504692, AID504904, AID504905]; format: functional
Mu-type opioid receptor = Mu-type opioid receptor (Homo sapiens, UniProt P35372); assay: Counterscreen for agonists of heterodimerization of the mu 1 (OPRM1) and delta 1 (OPRD1) opioid receptors: Luminescence-based cell-based high throughput dose response assay to identify agonists of OPRM1 homodimerization.; format: functional;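 also: U2OS cells expressing OPRM1 and beta-arrestin as split beta-galactosidase partners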
Cytochrome P450 2C9 = Cytochrome P450 2C9 (Homo sapiens, UniProt P11712)
[6] = target: T2, Short transient receptor potential channel 4 (Mus musculus, UniProt Q9QUQ5); assay: mouse TRPC4 channel activators, dose response, cell-based, HEK293 TRPC4/mu-opioid, Fluo-4 calcium (AID 434937); format: functional
T2 sequence (Q9QUQ5 whole entry): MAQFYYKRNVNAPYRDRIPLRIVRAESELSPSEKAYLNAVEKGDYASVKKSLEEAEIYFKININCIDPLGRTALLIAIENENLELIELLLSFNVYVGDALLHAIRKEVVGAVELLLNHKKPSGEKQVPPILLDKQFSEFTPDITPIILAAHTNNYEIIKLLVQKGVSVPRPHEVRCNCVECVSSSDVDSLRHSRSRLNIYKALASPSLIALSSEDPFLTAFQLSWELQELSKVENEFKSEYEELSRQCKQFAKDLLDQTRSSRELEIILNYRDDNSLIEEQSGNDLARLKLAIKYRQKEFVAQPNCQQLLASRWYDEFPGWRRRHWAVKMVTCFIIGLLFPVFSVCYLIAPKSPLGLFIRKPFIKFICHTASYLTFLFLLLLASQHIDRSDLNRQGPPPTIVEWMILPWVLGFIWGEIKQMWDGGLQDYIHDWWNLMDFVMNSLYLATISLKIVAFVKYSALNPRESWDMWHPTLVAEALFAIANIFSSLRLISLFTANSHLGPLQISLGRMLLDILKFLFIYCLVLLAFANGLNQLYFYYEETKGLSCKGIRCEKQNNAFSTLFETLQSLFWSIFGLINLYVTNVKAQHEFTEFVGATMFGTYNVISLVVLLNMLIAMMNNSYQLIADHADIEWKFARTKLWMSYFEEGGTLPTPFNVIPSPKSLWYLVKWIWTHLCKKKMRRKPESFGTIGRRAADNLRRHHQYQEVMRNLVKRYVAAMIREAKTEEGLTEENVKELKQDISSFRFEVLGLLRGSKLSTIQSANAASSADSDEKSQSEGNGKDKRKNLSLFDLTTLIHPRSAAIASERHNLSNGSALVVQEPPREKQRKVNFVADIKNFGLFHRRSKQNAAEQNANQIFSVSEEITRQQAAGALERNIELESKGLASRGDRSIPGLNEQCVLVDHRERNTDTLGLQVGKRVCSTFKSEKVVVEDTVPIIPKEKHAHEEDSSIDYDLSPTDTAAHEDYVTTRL

Vero = Vero cell cytotoxicity, cytotoxicity control for flavivirus capping enzyme inhibitors (AID 588742); format: functional; settings: Chlorocebus sabaeus
Cytochrome P450 2D6 = Cytochrome P450 2D6 (Homo sapiens, UniProt P10635);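 also: CYP2D6 member of a cytochrome P450 panel assay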
[7] = target: T3, Endoribonuclease toxin MazF (Escherichia coli K-12, UniProt P0AE70); assay: fluorescent RNA oligo signal without MazF, dose response, counter-screen for MazEF activator project, biochemical, fluorescence, single-stranded RNase substrate (AID 588502); format: functional
T3 sequence (P0AE70 whole entry): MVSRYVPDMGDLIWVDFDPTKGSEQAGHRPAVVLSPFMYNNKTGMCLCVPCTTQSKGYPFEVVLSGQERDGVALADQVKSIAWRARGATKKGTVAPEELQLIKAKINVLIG

[8] = target: T3, Endoribonuclease toxin MazF; assay: MazF toxin RNase activators, dose response, biochemical, fluorescence, single-stranded RNA substrate, uHTS hits (AID 588481); format: functional
Escherichia coli [9] = assay: microbe, parasite or virus in culture
Escherichia coli [10] = assay: microbe, parasite or virus in culture; remark: listed apart in the source
[11] = target: T4, Ubiquitin-conjugating enzyme E2 N (Homo sapiens, UniProt P61088); format: functional
T4 sequence (P61088 whole entry): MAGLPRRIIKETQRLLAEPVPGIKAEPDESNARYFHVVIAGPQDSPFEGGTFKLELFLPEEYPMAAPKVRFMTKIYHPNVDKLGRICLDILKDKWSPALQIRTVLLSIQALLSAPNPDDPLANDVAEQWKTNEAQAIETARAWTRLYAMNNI

[12] = target: T4, Ubiquitin-conjugating enzyme E2 N; format: functional; remark: listed apart in the source
[13] = target: T5, DNA repair protein RAD52 homolog (Homo sapiens, UniProt P43351); format: functional, biochemical
T5 sequence (P43351 whole entry): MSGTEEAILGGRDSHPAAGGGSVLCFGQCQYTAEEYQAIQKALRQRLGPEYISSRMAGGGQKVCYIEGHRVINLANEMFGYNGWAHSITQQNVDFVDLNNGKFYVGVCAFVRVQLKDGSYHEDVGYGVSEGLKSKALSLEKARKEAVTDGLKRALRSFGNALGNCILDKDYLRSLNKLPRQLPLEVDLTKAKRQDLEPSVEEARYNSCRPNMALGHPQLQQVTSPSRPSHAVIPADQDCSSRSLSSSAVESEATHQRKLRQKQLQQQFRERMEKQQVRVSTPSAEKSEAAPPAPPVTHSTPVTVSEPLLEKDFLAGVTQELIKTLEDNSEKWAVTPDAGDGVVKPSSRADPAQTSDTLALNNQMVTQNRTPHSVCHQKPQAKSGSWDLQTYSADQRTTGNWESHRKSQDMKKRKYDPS

Bcl-2-related protein A1 = target: T6, Bcl-2-related protein A1 (Mus musculus, UniProt Q07440); format: functional;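 also: confirmatory dose–response counterscreen on Bfl-1, used to check hits from a UBC13 polyubiquitin inhibitor campaign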
T6 sequence (Q07440 whole entry): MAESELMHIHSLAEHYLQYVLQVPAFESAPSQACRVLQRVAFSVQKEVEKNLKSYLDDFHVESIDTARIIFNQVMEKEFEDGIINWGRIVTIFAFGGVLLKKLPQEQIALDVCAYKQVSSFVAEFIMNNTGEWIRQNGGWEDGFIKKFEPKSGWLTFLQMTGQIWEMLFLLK

Nonstructural protein 1 = Nonstructural protein 1 (Influenza A virus, UniProt Q194T2); format: functional, Influenza A virus (A/California/07/2009(H1N1))
Paired box protein Pax-8 = Paired box protein Pax-8 (Homo sapiens, UniProt Q06710); assay: inhibitors of PAX8-driven TPO luciferase reporter, dose response, RMG-I cells, cherry-pick (AID 687027); format: functional, cell-based;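 also: luciferase reporter driven by Pax8 target thyroperoxidase promoter measured by SteadyGlo luminescence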
HEK293 = assay: cytotoxicity in HEK293T NF-kB-Luc cells, SAR follow-up, cytotoxicity control for NF-kB activator project, cell-based, resazurin fluorescence (AID 493251); format: functional; settings: Homo sapiens
[14] = target: Cyclin-dependent kinase 19 (Homo sapiens, UniProt Q9BWU1); assay: Navigating the Kinome. Panel member name: CDC2L6; format: functional
[15] = target: ALK tyrosine kinase receptor (Homo sapiens, UniProt Q9UM73); format: functional;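 also: ALK tested as one member of a kinase panel screen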

Cytochrome P450 2C9, sequence (P11712 whole entry): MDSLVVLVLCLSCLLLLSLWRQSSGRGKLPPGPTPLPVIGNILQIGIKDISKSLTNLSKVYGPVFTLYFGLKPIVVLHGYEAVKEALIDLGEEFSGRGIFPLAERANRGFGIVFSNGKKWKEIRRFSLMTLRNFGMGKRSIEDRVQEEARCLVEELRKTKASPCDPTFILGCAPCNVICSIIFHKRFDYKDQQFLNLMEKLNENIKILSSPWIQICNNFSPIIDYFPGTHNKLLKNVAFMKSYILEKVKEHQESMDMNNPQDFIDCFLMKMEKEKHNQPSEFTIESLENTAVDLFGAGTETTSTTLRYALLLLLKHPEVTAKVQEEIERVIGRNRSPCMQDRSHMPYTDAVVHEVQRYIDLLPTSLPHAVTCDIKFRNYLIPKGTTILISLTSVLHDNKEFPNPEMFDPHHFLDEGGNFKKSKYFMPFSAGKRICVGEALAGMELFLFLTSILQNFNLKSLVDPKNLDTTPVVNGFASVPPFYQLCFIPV
Mu-type opioid receptor, sequence (P35372 whole entry): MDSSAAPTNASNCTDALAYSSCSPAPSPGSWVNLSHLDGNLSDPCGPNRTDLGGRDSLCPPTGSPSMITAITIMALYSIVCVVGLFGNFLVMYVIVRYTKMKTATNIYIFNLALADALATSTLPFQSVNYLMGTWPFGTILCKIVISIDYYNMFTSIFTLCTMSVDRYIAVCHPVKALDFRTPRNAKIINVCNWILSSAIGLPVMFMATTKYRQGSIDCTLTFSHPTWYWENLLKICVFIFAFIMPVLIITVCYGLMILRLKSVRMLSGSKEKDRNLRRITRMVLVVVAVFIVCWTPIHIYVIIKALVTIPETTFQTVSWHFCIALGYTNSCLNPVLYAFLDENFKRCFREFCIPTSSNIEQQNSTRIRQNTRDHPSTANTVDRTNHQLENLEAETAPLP
5-hydroxytryptamine receptor 5A, sequence (P47898 whole entry): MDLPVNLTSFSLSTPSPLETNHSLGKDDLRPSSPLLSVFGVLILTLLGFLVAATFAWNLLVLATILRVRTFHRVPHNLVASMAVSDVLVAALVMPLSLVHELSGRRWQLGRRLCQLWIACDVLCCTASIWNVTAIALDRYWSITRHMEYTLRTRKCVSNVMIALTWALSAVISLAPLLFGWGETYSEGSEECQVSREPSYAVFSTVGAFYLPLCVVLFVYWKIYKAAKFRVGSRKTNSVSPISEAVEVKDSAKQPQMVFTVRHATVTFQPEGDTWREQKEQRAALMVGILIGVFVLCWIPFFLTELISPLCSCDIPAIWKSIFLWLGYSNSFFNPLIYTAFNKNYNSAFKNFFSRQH
Delta-type opioid receptor, sequence (P41143 whole entry): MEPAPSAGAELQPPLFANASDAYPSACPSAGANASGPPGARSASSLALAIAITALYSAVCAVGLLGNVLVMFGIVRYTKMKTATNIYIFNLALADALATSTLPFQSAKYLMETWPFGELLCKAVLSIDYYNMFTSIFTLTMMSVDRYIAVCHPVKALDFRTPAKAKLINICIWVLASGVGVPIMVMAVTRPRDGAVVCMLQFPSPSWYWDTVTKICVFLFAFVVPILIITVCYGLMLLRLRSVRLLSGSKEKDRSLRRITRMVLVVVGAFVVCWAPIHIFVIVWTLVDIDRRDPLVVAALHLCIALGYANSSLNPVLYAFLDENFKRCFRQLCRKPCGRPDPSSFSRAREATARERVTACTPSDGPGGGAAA
Intestinal-type alkaline phosphatase (Homo sapiens, UniProt P09923), sequence (P09923 whole entry): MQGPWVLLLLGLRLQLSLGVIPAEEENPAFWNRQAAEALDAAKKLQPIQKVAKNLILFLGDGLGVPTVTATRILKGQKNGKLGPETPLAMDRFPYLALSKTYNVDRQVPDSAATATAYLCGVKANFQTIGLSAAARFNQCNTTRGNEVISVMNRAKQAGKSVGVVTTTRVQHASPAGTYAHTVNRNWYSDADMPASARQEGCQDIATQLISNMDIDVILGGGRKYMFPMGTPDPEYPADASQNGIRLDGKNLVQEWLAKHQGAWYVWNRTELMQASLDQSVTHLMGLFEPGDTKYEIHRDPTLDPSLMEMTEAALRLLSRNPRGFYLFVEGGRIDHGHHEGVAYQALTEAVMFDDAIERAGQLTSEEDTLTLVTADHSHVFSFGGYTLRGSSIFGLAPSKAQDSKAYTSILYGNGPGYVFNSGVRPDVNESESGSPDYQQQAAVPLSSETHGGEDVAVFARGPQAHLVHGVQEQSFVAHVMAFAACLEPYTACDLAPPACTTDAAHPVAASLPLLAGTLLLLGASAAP
Intestinal-type alkaline phosphatase (Mus musculus, UniProt P24822), sequence (P24822 whole entry): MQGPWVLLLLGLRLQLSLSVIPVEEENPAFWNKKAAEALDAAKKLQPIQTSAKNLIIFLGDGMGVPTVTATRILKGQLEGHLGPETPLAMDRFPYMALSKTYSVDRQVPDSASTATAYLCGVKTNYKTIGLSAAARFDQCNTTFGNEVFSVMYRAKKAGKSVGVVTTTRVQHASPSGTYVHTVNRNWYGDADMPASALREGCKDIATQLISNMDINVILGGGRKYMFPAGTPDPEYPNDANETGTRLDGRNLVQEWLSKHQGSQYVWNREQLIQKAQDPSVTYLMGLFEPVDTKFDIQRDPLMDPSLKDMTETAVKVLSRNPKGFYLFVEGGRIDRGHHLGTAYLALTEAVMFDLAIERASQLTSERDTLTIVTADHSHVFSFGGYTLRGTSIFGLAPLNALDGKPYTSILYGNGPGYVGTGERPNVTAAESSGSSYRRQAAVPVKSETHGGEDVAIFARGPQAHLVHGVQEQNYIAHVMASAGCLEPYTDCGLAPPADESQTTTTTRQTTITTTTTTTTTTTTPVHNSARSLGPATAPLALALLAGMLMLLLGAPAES
Cyclin-dependent kinase 19, sequence (Q9BWU1 whole entry): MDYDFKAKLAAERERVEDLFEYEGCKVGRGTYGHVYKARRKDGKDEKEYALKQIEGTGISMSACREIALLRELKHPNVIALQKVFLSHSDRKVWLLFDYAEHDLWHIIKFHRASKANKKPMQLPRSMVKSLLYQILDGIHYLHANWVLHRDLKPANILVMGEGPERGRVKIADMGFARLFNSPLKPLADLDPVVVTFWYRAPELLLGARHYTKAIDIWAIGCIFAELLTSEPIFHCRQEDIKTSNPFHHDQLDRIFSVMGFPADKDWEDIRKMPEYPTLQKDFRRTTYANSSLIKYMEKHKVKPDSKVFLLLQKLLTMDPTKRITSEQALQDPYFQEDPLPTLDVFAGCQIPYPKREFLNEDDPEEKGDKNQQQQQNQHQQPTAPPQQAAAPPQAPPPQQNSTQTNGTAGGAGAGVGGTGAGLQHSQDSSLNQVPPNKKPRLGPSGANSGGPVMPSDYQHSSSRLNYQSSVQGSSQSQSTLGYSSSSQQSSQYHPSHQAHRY
Cytochrome P450 2D6, sequence (P10635 whole entry): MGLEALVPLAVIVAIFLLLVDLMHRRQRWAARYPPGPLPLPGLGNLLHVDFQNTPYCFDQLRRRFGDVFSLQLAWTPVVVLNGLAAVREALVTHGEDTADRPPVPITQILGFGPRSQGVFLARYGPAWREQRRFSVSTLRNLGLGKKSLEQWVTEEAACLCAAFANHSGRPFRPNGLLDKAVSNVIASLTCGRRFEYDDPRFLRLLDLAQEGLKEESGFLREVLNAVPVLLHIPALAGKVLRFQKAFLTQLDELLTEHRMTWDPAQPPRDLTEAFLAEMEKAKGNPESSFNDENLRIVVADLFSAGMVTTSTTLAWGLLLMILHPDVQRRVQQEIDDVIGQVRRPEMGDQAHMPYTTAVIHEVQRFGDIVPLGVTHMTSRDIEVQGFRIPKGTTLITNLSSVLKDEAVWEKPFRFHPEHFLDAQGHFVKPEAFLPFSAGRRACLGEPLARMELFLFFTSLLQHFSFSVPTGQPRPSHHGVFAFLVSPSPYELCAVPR
Paired box protein Pax-8, sequence (Q06710 whole entry): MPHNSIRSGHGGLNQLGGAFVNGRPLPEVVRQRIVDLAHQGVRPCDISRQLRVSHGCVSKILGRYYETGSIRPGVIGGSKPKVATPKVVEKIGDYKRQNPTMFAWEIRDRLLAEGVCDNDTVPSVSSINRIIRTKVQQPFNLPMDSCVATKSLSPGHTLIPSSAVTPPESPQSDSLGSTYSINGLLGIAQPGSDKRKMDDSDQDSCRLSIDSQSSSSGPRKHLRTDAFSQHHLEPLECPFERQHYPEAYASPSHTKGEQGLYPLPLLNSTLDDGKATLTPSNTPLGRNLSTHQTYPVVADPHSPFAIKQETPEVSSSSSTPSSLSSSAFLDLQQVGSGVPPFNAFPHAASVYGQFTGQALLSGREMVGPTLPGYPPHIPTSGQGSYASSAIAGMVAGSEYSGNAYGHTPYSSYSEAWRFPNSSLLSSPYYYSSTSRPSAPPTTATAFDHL
Nonstructural protein 1, sequence (Q194T2 whole entry): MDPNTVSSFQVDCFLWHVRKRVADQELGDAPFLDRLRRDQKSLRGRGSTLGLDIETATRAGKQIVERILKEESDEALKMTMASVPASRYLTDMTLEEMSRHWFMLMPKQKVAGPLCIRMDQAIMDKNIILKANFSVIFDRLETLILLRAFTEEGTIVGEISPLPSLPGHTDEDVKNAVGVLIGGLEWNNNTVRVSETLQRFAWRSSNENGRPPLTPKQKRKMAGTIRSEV

`O=C1NN(c2cccc(Br)c2)C(=O)/C1=C/c1ccc(-c2cc([N+](=O)[O-])ccc2O)o1` was tested, and the IC50 [1] was 4.7 µM (active), the IC50 [2] was > 100 µM (inactive) and the IC50 [3] was > 100 µM (inactive).

For `CCN1CCN(c2ccc([N+](=O)[O-])c(Sc3nc4ccccc4[nH]3)c2)CC1`, the EC50 [4] was > 92.5 µM (inactive), the EC50 [5] was 4.1 µM (active) and the EC50 (Mu-type opioid receptor) was > 92.5 µM (inactive).

With `Cc1cc(C)c(NC(=O)NC(=O)c2ccc(F)cc2)c(C)n1` the AC50 (Cytochrome P450 2C9) was “inconclusive”.

In the case of `COc1ccc2c(Cl)c(-c3nnc(SCC(=O)c4ccccc4)n3C)sc2c1`, the EC50 [6] is reported as 0.668 µM (active), the EC50 [4] is reported as > 92.5 µM (inactive) and the EC50 [5] is reported as 26.5 µM (inactive). The EC50 (Mu-type opioid receptor) was 10.3 µM (inactive).

For `Cc1ccc(-c2cc(C(=O)NCc3ccco3)c3ccccc3n2)s1`, the CC50 (Vero) was > 40 µM (active).

For `COc1ccc(CNc2ccnc(-c3cccc(NS(C)(=O)=O)c3)n2)c(OC)c1`, the AC50 (Cytochrome P450 2D6) was 12.6 µM (inconclusive) and the AC50 (Cytochrome P450 2C9) was “inconclusive”.

For `CCOC(=O)C1=C(C)N(CC(C)C)C(=O)/C1=C\c1cccs1`, the EC50 [7] was > 99 µM (inactive) and the EC50 [8] was > 99 µM (inactive).

With `CN1C2C=C(N(CCc3ccccc3)C(=O)c3ccc(Cl)cc3)CC1CC2` (stereo unspecified) the EC50 [6] was 0.531 µM (active), the EC50 [4] was > 92.5 µM (inactive) and the EC50 [5] was > 92.5 µM (inactive). For the same compound, the EC50 (Mu-type opioid receptor) was 67.3 µM (inactive).

For `N#Cc1c(SCC(=O)Nc2nc3ccccc3s2)sc2c(O)cc(O)nc12`, the IC50 [1] was 18.8 µM (active), the IC50 [2] was > 100 µM (inactive) and the IC50 [3] was > 100 µM (inactive).

With `CC(C)n1ncc2c(C(=O)N3CCN(Cc4ccc(Br)s4)CC3)cc(C3CC3)nc21` the AC50 (Escherichia coli [9]) was 76 µM (active).

`O=C(CSc1nnc2sc3ccccc3n12)NCc1ccco1` was tested, and the AC50 (Cytochrome P450 2C9) was “inconclusive”.

In the case of `C[C@H]1c2cccc(O)c2C(=O)C2C(=O)C3(O)C(=O)C(C(N)=O)C(=O)[C@@H](N(C)C)[C@@H]3[C@@H](O)[C@@H]21` (stereo partly specified), the AC50 (Escherichia coli [9]) is reported as 0.882 µM (active) and the AC50 (Escherichia coli [10]) is reported as 12.3 µM (active).

In the case of `CN(C)CCCNC(=O)c1ccc(-c2cc(O)c3ncccc3c2)cc1`, the IC50 [11] is reported as 3.89 µM (active), the IC50 [12] is reported as 3.15 µM (active) and the AC50 [13] is reported as 0.849 µM (active). For the same compound, the IC50 (Bcl-2-related protein A1) was 7.49 µM (active) and the IC50 (Nonstructural protein 1) was 4.25 µM (active).

In the case of `CC(C)=CCC/C(C)=C/CNC(=O)C[C@H]1C[C@H](C(=O)N2CCOCC2)[C@@]2(C)c3[nH]c4ccc(Cl)cc4c3CCN2C1=O`, the AC50 (Escherichia coli [9]) is reported as 112 µM (active) and the AC50 (Paired box protein Pax-8) is reported as 11.8 µM (active).

In the case of `CCNC(=O)CCc1nc(-c2ccc(OCC)cc2)no1`, the IC50 (HEK293) is reported as > 80 µM (inactive).

In the case of `O=C1/C(=C/c2ccc3c(c2)OCO3)SC(=S)N1CCC(=O)N(CCO)c1ccccc1`, the EC50 [7] is reported as 90.4 µM (inactive) and the EC50 [8] is reported as > 99 µM (inactive).

For `CCOc1ccc(-c2nc3ccccn3c2-c2ccnc(Nc3cccc(CCN(C)C)c3)n2)cc1`, the Ki [14] was 6.31 µM (active) and the Ki [15] was 0.316 µM (active).

For `COc1ccccc1/N=C/c1c(C)c(C#N)c2nc3ccccc3n2c1O`, the EC50 [7] was > 99 µM (inactive) and the EC50 [8] was > 99 µM (inactive).
